Reference: publication PMC11412489, “Coumarin derivatives as new anti-biofilm agents against Staphylococcus aureus” (PLOS ONE, 2024)
Where two headings read alike, the source gives them in different places.

Experiments:
Type in all cases: cell-based, Staphylococcus aureus
S. aureus biofilm = assay: Atomic force microscopy analysis of biofilm disruption; conditions: compared to control S. aureus cells, 24 hours
Description: The size and structure of disrupted biofilm was analyzed. Briefly, a pure single colony of S. aureus was inoculated in BHI broth and grown for 18–24 hours at 37°C. Following incubation, the cells were diluted in BHI broth, and density was adjusted to 1×10^7 before loading on a sterile silicon chip placed in 24-well plate, then silicon chips were treated with active compounds. The plate was then sealed, and placed in an incubator for 24 hours at 37°C. After incubation, the treated silicon chips were washed with autoclaved distilled water thrice, air dried, and the samples were analyzed by atomic force microscope (Agilent Technologies, USA).

[1] = test system: biofilm cells of the S. aureus strain (ATCC 6538); assay: Biofilm analysis by fluorescence microscopy (SYTO-9/PI); conditions: SYTO-9/PI staining, S. aureus ATCC 6538, 24 hours
Description: Briefly, 1×10^7 cells were loaded in 96-well plate, and treated with active compounds. Plate was sealed, and incubated for 24 hours at 37°C. Following incubation, plate was washed with sterile distilled water, and cells were stained with […] SYTO-9 and 5 μM PI, for 30 minutes in dark at room temperature. After incubation, the wells were washed again, and air dried. Images were taken, and then visualized by Nikon Eclipse TE2000, USA [23]. Propidium Iodide (PI) staining indicates membrane integrity, as it can only pass through compromised membranes of non-viable cells, giving red fluorescence. On the contrary, Syto-9 can pass through all cells despite of their membrane integrity, and binds to DNA/RNA by emitting green fluorescence.

[2] = test system: biofilm of S. aureus ATCC 6538; assay: 96-well plate crystal violet assay for biofilm inhibition; conditions: for inhibition at 3.125 µg/mL / inhibition at 6.25 µg/mL / inhibition at 12.5 µg/mL / inhibition at 25 µg/mL / inhibition at 50 µg/mL / inhibition at 100 µg/mL: Staphylococcus aureus, ATCC6538
Description: The quantitative determination of biofilm inhibition was carried out by the crystal violet assay on a sterile 96-well plate with slight modifications. The glycerol stock of S. aureus was revived overnight at 37°C at 80 rpm. The overnight culture was then diluted 100 folds in fresh BHI broth, supplemented with 0.25% glucose. The cell density was adjusted to 1×10^7 and 195μL of the cell suspension was added in 96-well plate. […] Following that, the plate was washed with sterile distilled water in order to decant the non-adherent cells, and media. The plate was then dried at 60°C for 1 hour, and 200 μL of 0.1% (w/v) crystal violet was added to stain biofilm for 20 minutes. The plate was washed again, air dried, and dispensed 30% (v/v) acetic acid in each well to dissolve the biofilm. The inhibition of biofilm formation was analyzed by measuring the absorbance at 595 nm using the microplate reader (Multiskan Sky, Thermo Scientific, USA). The percent inhibition of biofilm formation was calculated via the following formula: 100−ƛTreated−ƛBlank/ƛControl−ƛBlank×100 Whereƛ=absorbance

S. aureus = assay: Antibacterial activity (bacterial growth inhibition); conditions: at 100 μg/mL; for inhibition at 100 µg/mL: Staphylococcus aureus, read-out: Antibacterial Activity (% Inhibition ± SEM)
[3] = S. aureus ATCC 6538, replicate 1, read-out: % Inhibition 1
[4] = S. aureus ATCC 6538, replicate 2, read-out: % Inhibition 2
[5] = S. aureus ATCC 6538, replicate 3, read-out: % Inhibition 3
[6] = S. aureus ATCC 6538, read-out: Mean % Inhibition
[7] = 100 µg/mL, S. aureus ATCC 6538, replicate 1, read-out: % Inhibition 1
[8] = 100 µg/mL, S. aureus ATCC 6538, replicate 2, read-out: % Inhibition 2
[9] = 100 µg/mL, S. aureus ATCC 6538, replicate 3, read-out: % Inhibition 3
[10] = 100 µg/mL, S. aureus ATCC 6538, read-out: Mean % Inhibition
[11] = at 100 μg/mL, biofilm of S. aureus, 24 hours, read-out: Antibiofilm Activity (% Inhibition ± SEM)
[12] = at 100 μg/mL, biofilm of S. aureus, 24 hours

Structure (SMILES): Cc1ccc2oc(=O)c(/C=N/Nc3nc(-c4cccc([N+](=O)[O-])c4)cs3)c(Cl)c2c1 [Compound 2, (E)-4-Chloro-6-methyl-3-((2-(4-(3-nitrophenyl)thiazol-2-yl)hydrazono)methyl)-2H-chromen-2-one]
- Biofilm disruption seen by AFM (S. aureus biofilm): disrupt and degrade biofilm to varying degrees
- Biofilm disruption seen by fluorescence microscopy [1]: Disruption on the surface of biofilm
- inhibition at 3.125 µg/mL [2, 3]: 4.05%
- inhibition at 3.125 µg/mL [2, 4]: 3.79%
- inhibition at 3.125 µg/mL [2, 5]: 4.17%
- inhibition at 3.125 µg/mL [2, 6]: 4%
- inhibition at 6.25 µg/mL [2, 3]: 3.29%
- inhibition at 6.25 µg/mL [2, 4]: 3.99%
- inhibition at 6.25 µg/mL [2, 5]: 3.49%
- inhibition at 6.25 µg/mL [2, 6]: 3.59%
- inhibition at 12.5 µg/mL [2, 3]: 1.73%
- inhibition at 12.5 µg/mL [2, 4]: 0.99%
- inhibition at 12.5 µg/mL [2, 5]: 2.54%
- inhibition at 12.5 µg/mL [2, 6]: 1.75%
- inhibition at 25 µg/mL [2, 3]: 1.79%
- inhibition at 25 µg/mL [2, 4]: 1.44%
- inhibition at 25 µg/mL [2, 5]: 1.99%
- inhibition at 25 µg/mL [2, 6]: 1.74%
- inhibition at 50 µg/mL [2, 3]: 27%
- inhibition at 50 µg/mL [2, 4]: 29.2%
- inhibition at 50 µg/mL [2, 5]: 28.5%
- inhibition at 50 µg/mL [2, 6]: 28.3%
- inhibition at 100 µg/mL [2, 7]: 95%
- inhibition at 100 µg/mL [2, 8]: 93.9%
- inhibition at 100 µg/mL [2, 9]: 93.6%
- inhibition at 100 µg/mL [2, 10]: 94.2%
- inhibition at 100 µg/mL [2, 11]: 90 ± 3.24%
- Antibiofilm Activity (% Inhibition ± SEM) [2, 12]: high potential to inhibit the biofilms
- inhibition at 100 µg/mL (S. aureus): 15 ± 4.53%
- Antibacterial Activity (% Inhibition ± SEM) (S. aureus): low antibacterial effect

Structure (SMILES): Cc1ccc2oc(=O)c(/C=N/Nc3nc(-c4ccc(C#N)cc4)cs3)c(Cl)c2c1 [Compound 3, (E)-4-(2-(2-((4-Chloro-6-methyl-2-oxo-2H-chromen-3-yl)methylene)hydrazinyl)thiazol-4-yl)benzonitrile]
- Biofilm disruption seen by AFM (S. aureus biofilm): disrupt and degrade biofilm to varying degrees
- Biofilm disruption seen by fluorescence microscopy [1]: mild to extensive biofilm disruption and degradation
- inhibition at 3.125 µg/mL [2, 3]: 12.7%
- inhibition at 3.125 µg/mL [2, 4]: 11.7%
- inhibition at 3.125 µg/mL [2, 5]: 13.9%
- inhibition at 3.125 µg/mL [2, 6]: 12.8%
- inhibition at 6.25 µg/mL [2, 3]: 22.7%
- inhibition at 6.25 µg/mL [2, 4]: 21.1%
- inhibition at 6.25 µg/mL [2, 5]: 22.5%
- inhibition at 6.25 µg/mL [2, 6]: 22.1%
- inhibition at 12.5 µg/mL [2, 3]: 26.9%
- inhibition at 12.5 µg/mL [2, 4]: 29.2%
- inhibition at 12.5 µg/mL [2, 5]: 27.4%
- inhibition at 12.5 µg/mL [2, 6]: 27.8%
- inhibition at 25 µg/mL [2, 3]: 55.9%
- inhibition at 25 µg/mL [2, 4]: 57.8%
- inhibition at 25 µg/mL [2, 5]: 56.6%
- inhibition at 25 µg/mL [2, 6]: 56.8%
- inhibition at 50 µg/mL [2, 3]: 74%
- inhibition at 50 µg/mL [2, 4]: 76%
- inhibition at 50 µg/mL [2, 5]: 77%
- inhibition at 50 µg/mL [2, 6]: 75.6%
- inhibition at 100 µg/mL [2, 7]: 93.2%
- inhibition at 100 µg/mL [2, 8]: 90.2%
- inhibition at 100 µg/mL [2, 9]: 93.1%
- inhibition at 100 µg/mL [2, 10]: 92.2%
- inhibition at 100 µg/mL [2, 11]: 91 ± 6.31%
- Antibiofilm Activity (% Inhibition ± SEM) [2, 12]: high potential to inhibit the biofilms
- inhibition at 100 µg/mL (S. aureus): 27 ± 6.41%
- Antibacterial Activity (% Inhibition ± SEM) (S. aureus): low antibacterial effect

Structure (SMILES): Cc1ccc2oc(=O)c(/C=N/Nc3nc(-c4ccc([N+](=O)[O-])cc4)cs3)c(Cl)c2c1 [Compound 4, (E)-4-Chloro-6-methyl-3-((2-(4-(4-nitrophenyl)thiazol-2-yl)hydrazono)methyl)-2H-chromen-2-one]
- Biofilm disruption seen by AFM (S. aureus biofilm): disrupt and degrade biofilm to varying degrees
- Biofilm disruption seen by fluorescence microscopy [1]: mild to extensive biofilm disruption and degradation
- inhibition at 3.125 µg/mL [2, 3]: 2.92%
- inhibition at 3.125 µg/mL [2, 4]: 1.79%
- inhibition at 3.125 µg/mL [2, 5]: 3.04%
- inhibition at 3.125 µg/mL [2, 6]: 2.58%
- inhibition at 6.25 µg/mL [2, 3]: 7.04%
- inhibition at 6.25 µg/mL [2, 4]: 8.05%
- inhibition at 6.25 µg/mL [2, 5]: 9.02%
- inhibition at 6.25 µg/mL [2, 6]: 8.04%
- inhibition at 12.5 µg/mL [2, 3]: 6.69%
- inhibition at 12.5 µg/mL [2, 4]: 5.79%
- inhibition at 12.5 µg/mL [2, 5]: 5.68%
- inhibition at 12.5 µg/mL [2, 6]: 6.05%
- inhibition at 25 µg/mL [2, 3]: 29.1%
- inhibition at 25 µg/mL [2, 4]: 30.1%
- inhibition at 25 µg/mL [2, 5]: 28.1%
- inhibition at 25 µg/mL [2, 6]: 29.1%
- inhibition at 50 µg/mL [2, 3]: 66%
- inhibition at 50 µg/mL [2, 4]: 67%
- inhibition at 50 µg/mL [2, 5]: 66.1%
- inhibition at 50 µg/mL [2, 6]: 66.4%
- inhibition at 100 µg/mL [2, 7]: 86.8%
- inhibition at 100 µg/mL [2, 8]: 84.3%
- inhibition at 100 µg/mL [2, 9]: 86.6%
- inhibition at 100 µg/mL [2, 10]: 85.9%
- inhibition at 100 µg/mL [2, 11]: 90 ± 9.3%
- Antibiofilm Activity (% Inhibition ± SEM) [2, 12]: high potential to inhibit the biofilms
- inhibition at 100 µg/mL (S. aureus): 21 ± 4.51%
- Antibacterial Activity (% Inhibition ± SEM) (S. aureus): low antibacterial effect

Structure (SMILES): C/C(=N\Nc1nc(-c2ccc(Br)cc2)cs1)c1cc2ccccc2oc1=O [Compound 10, (E)-3-(1-(2-(4-(4-Bromophenyl)thiazol-2-yl)hydrazono)ethyl)-2H-chromen-2-one]
- Biofilm disruption seen by AFM (S. aureus biofilm): Disrupted biofilm surfaces
- Biofilm disruption seen by fluorescence microscopy [1]: Disruption on the surface of biofilm
- inhibition at 3.125 µg/mL [2, 3]: 1.98%
- inhibition at 3.125 µg/mL [2, 4]: 1.44%
- inhibition at 3.125 µg/mL [2, 5]: 1.54%
- inhibition at 3.125 µg/mL [2, 6]: 1.65%
- inhibition at 6.25 µg/mL [2, 3]: 5.34%
- inhibition at 6.25 µg/mL [2, 4]: 4.99%
- inhibition at 6.25 µg/mL [2, 5]: 5.53%
- inhibition at 6.25 µg/mL [2, 6]: 5.29%
- inhibition at 12.5 µg/mL [2, 3]: 7.56%
- inhibition at 12.5 µg/mL [2, 4]: 7.29%
- inhibition at 12.5 µg/mL [2, 5]: 7.21%
- inhibition at 12.5 µg/mL [2, 6]: 7.35%
- inhibition at 25 µg/mL [2, 3]: 2.34%
- inhibition at 25 µg/mL [2, 4]: 2.21%
- inhibition at 25 µg/mL [2, 5]: 2.09%
- inhibition at 25 µg/mL [2, 6]: 2.21%
- inhibition at 50 µg/mL [2, 3]: 39.5%
- inhibition at 50 µg/mL [2, 4]: 39.8%
- inhibition at 50 µg/mL [2, 5]: 39.8%
- inhibition at 50 µg/mL [2, 6]: 39.7%
- inhibition at 100 µg/mL [2, 7]: 69.4%
- inhibition at 100 µg/mL [2, 8]: 69.5%
- inhibition at 100 µg/mL [2, 9]: 68.9%
- inhibition at 100 µg/mL [2, 10]: 69.3%
- inhibition at 100 µg/mL [2, 11]: 69 ± 9.34%
- Antibiofilm Activity (% Inhibition ± SEM) [2, 12]: high potential to inhibit the biofilms
- inhibition at 100 µg/mL (S. aureus): 18 ± 3.73%
- Antibacterial Activity (% Inhibition ± SEM) (S. aureus): low antibacterial effect
